# Results taken from patent US7411076B2, “Coumarin derivative” (Institute of Medicinal Molecular Design, Inc., priority 2002, dated 2008).
# System: Jurkat cells
# Test: Jurkat cell proliferation, compound alone or in combination with bleomycin, living cells counted by the MTS method
# Format: cell-based
# Details: Jurkat cells, combined with bleomycin 5 μg/ml or 10 μg/ml, 36 hours, survival rate vs DMSO control
# Procedure: By using these compounds, effects on proliferation of Jurkat cells by sole administration and inhibitory effects on cell proliferation by administration in combination with bleomycin were examined. Materials and methods are as follows. Jurkat cells obtained from Dainippon Pharmaceutical Co. Ltd. were inoculated at about 10,000 cells per well in a 96 well culture plate, and incubated in 10% bovine fetal serum (Irvine Scientific) supplemented with RPMI1640(ICN) medium in 5% CO2 incubator at 37° C. […] 36 hours after the incubation, the number of living cells was counted by the MTS method.
# More specifically, 20 μl of CellTiter96™ AQueous One Solution (Promega) was added per one well, and after the cells were incubated for additional one hour, an absorbance at 490 nm was measured by using a microplate reader. The same culture added with DMSO as a solvent at final concentration of 0.25% was used as a control. The number of cells in the control was considered as 100% survival rate, and for each compound, survival rates by sole administration or a combined administration were calculated. […] In the table, ++ indicates observation of remarkable enhancement, + indicates moderated enhancement, and ± indicates weak enhancement.
row,Compound,Activity (enhancement of the inhibitory effect of bleomycin on cell proliferation)
1,"O=C(Nc1cc2ccc(O)cc2oc1=O)c1ccccc1 [Compound 1, N-(7-hydroxy-2-oxo-2H-1-benzopyran-3-yl)benzamide]",±
2,"CC(C)(C)C(=O)Nc1cc2ccc(O)cc2oc1=O [Compound 29, N-(7-hydroxy-2-oxo-2H-1-benzopyran-3-yl)-2,2-dimethylpropanamide]",±
3,"O=C(Cc1ccccc1)Nc1cc2ccc(O)cc2oc1=O [Compound 30, N-(7-hydroxy-2-oxo-2H-1-benzopyran-3-yl)benzeneacetamide]",+
4,"O=C(Nc1cc2ccc(O)cc2oc1=O)c1ccco1 [Compound 25, N-(7-hydroxy-2-oxo-2H-1-benzopyran-3-yl)-2-furancarboxamide]",±
5,"O=C(Nc1cc2ccc(O)cc2oc1=O)c1ccc(F)cc1 [Compound 6, 4-fluoro-N-(7-hydroxy-2-oxo-2H-1-benzopyran-3-yl)benzamide]",±
6,"O=C(Nc1cc2ccc(O)cc2oc1=O)c1cccc(Br)c1 [Compound 4, 3-bromo-N-(7-hydroxy-2-oxo-2H-1-benzopyran-3-yl)benzamide]",+
7,"O=C(Nc1cc2ccc(O)cc2oc1=O)c1ccc2c(c1)OCO2 [Compound 28, N-(7-hydroxy-2-oxo-2H-1-benzopyran-3-yl)-1,3-benzodioxole-5-carboxamide]",±
8,"O=C(Nc1cc2ccc(O)cc2oc1=O)c1cccc(Cl)c1 [Compound 3, 3-chloro-N-(7-hydroxy-2-oxo-2H-1-benzopyran-3-yl)benzamide]",+
9,"O=C(Nc1cc2ccc(O)cc2oc1=O)c1cccnc1Cl [Compound 27, 2-chloro-N-(7-hydroxy-2-oxo-2H-1-benzopyran-3-yl)-3-pyridinecarboxamide]",±
10,"O=C(Nc1cc2ccc(O)cc2oc1=O)c1ccc(-c2ccccc2)cc1 [Compound 14, N-(7-hydroxy-2-oxo-2H-1-benzopyran-3-yl)-[1,1′-biphenyl]-4-carboxamide]",++
11,"COc1ccccc1C(=O)Nc1cc2ccc(O)cc2oc1=O [Compound 15, N-(7-hydroxy-2-oxo-2H-1-benzopyran-3-yl)-2-methoxybenzamide]",±
12,"O=C(Nc1cc2ccc(O)cc2oc1=O)c1ccccc1Cl [Compound 2, 2-chloro-N-(7-hydroxy-2-oxo-2H-1-benzopyran-3-yl)benzamide]",+
13,"COc1cccc(C(=O)Nc2cc3ccc(O)cc3oc2=O)c1 [Compound 16, N-(7-hydroxy-2-oxo-2H-1-benzopyran-3-yl)-3-methoxybenzamide]",±
14,"O=C(Nc1cc2ccc(O)cc2oc1=O)c1cccs1 [Compound 26, N-(7-hydroxy-2-oxo-2H-1-benzopyran-3-yl)-2-thiophenecarboxamide]",±
15,"O=C(Nc1cc2ccc(O)cc2oc1=O)c1ccc([N+](=O)[O-])cc1 [Compound 20, N-(7-hydroxy-2-oxo-2H-1-benzopyran-3-yl)-4-nitrobenzamide]",±
16,"N#Cc1ccc(C(=O)Nc2cc3ccc(O)cc3oc2=O)cc1 [Compound 22, 4-cyano-N-(7-hydroxy-2-oxo-2H-1-benzopyran-3-yl)benzamide]",+
17,"O=C(Nc1cc2ccc(O)cc2oc1=O)c1cccc2ccccc12 [Compound 23, N-(7-hydroxy-2-oxo-2H-1-benzopyran-3-yl)-1-naphthalenecarboxamide]",+
18,"O=C(Nc1cc2ccc(O)cc2oc1=O)c1ccc(C(F)(F)F)cc1 [Compound 13, N-(7-hydroxy-2-oxo-2H-1-benzopyran-3-yl)-4-(trifluoromethyl)benzamide]",+
19,"O=C(Nc1cc2ccc(O)cc2oc1=O)c1ccc2ccccc2c1 [Compound 24, N-(7-hydroxy-2-oxo-2H-1-benzopyran-3-yl)-2-naphthalenecarboxamide]",±
20,"O=C(Nc1cc2ccc(O)cc2oc1=O)c1ccc(Cl)cc1 [Compound 5, 4-chloro-N-(7-hydroxy-2-oxo-2H-1-benzopyran-3-yl)benzamide]",±
21,"Cc1ccccc1C(=O)Nc1cc2ccc(O)cc2oc1=O [Compound 8, N-(7-hydroxy-2-oxo-2H-1-benzopyran-3-yl)-2-methylbenzamide]",+
22,"COC(=O)c1ccc(C(=O)Nc2cc3ccc(O)cc3oc2=O)cc1 [Compound 21, 4-[[N-(7-hydroxy-2-oxo-2H-1-benzopyran-3-yl)amino]carbonyl]benzoic acid methyl ester]",±

# Same assay, conditions: bleomycin alone at 5 μg/ml or 10 μg/ml, 36 hours, DMSO control = 100% survival
row,Compound,decrease in the survival rates of the Jurkat cells
1,bleomycin [reference compound],5 to 10%
